Measured values: patent US11267826B2, “Penicillin-binding protein inhibitors” (priority 2017, dated 2022)

Tests used:
E. coli K12 PBP1a/b = test: Bocillin FL competition binding assay, PBP1a/1b combined; set-up: species or system Escherichia coli K12; details: 15 min pre-incubation, PBP 1a/1b combined
Method: (§1) To determine the ability of test compounds to bind Penicillin Binding Proteins (PBPs), a competition binding assay using Bocillin FL (fluorescent derivative of penicillin V) was adapted from the classical method used to assess PBP potency of beta-lactams.
(§2) Penicillin binding proteins were isolated from Escherichia coli K12 by growth of Escherichia coli K12 from a single colony in 4 L of Luria-Bertani (LB) broth at 35° C. and 250 rpm to an OD600 nm of 0.5. The cells were harvested by centrifugation at 7,000×g for 10 min. at 4° C. Cells were resuspended and washed in 50 mM potassium phosphate pH 7.5. The cells were re-suspended in sonication buffer [50 mM Tris-HCl pH 7.5, 1 mM MgCl2, 1 mM beta-mercaptoethanol, and 5 μg/mL DNAse I] and sonicated by 4 passes of 30 seconds at 45 W on ice. The sample was clarified by centrifugation at 3,000×g to remove cell debris and unbroken cells and supernatant containing the membrane proteins was retained. The membrane proteins including the PBPs were further purified from soluble constituents by an ultracentrifugation step at 100,000×g for 30 min. at 4° C. The membrane proteins are washed twice with 10 mM sodium phosphate pH 7, resuspended in a volume of 5 mL, quantitated by BCA assay, adjusted to […] and frozen at −80° C. until use.
(§3) The adapted Bocillin FL competition binding method described herein incorporates a 15 min. pre-incubation of test compound with isolated PBPs to attempt to balance the difference in mechanism of inhibition between beta-lactams (largely irreversible covalent bond to active site Serine) and the boron-containing PBP inhibitor test compounds (reversible covalent bond to active site Serine). Briefly, 50 μL reactions consisted of 100 μg's of total membrane protein extracts containing PBPs incubated with a dilution series of test compound ranging from 0.005 μg/mL to 2,480 μg/mL in 10 mM sodium phosphate pH7 containing 350 mM NaCl. Thirty minute reactions at 35° C. were initiated by addition of […] Bocillin FL, quenched by addition of SDS-PAGE loading buffer containing sodium dodecyl sulfate (SDS) and heated for 15 minutes at 95° C. to denature proteins in preparation for SDS-polyacrylamide gel electrophoresis. The Bocillin FL labeled PBPs are then separated by SDS-PAGE in Novex NuPage 10% Bis-Tris pre-cast gels (Invitrogen). The SDS-PAGE gel, post-electrophoresis, is then washed in water to remove excess SDS for 10 minutes at room temperature and placed on the scanning bed of a GE Healthcare/Amersham Biosciences Storm 860 fluorescence scanner. The excitation wavelength is in the blue spectrum at 450 nm and the emission at 520 nm is captured by the instrument. Effective PBP inhibitors are detected by a reduction in Bocillin FL labeling of the particular PBP over the dose range of test compound in a dose-responsive manner. High molecular weight PBP 1a/1b are not resolved by these gels, thus we report HMW PBP binding results in μg/mL for PBPs 1a/1b combined as well as for PBP2 and PBP3.
(§4) Representative results are shown in Table 2, where A represents a potency of >1000 μg/mL, B represents a potency between 64 and 1000 μg/mL inclusive, and C represents a potency of <64 μg/mL. NT=Not Tested.

E. coli PBP3 = biological target: T1, E. coli PBP3 (Escherichia coli, UniProt P0AD68); test: Bocillin FL competition binding assay, PBP3; set-up: species or system Escherichia coli K12; details: 15 min pre-incubation
T1 construct: 100 μg's of total membrane protein extracts containing PBPs; endogenous in cells; host or cells: Escherichia coli K12, membrane protein fraction
T1 sequence (P0AD68 1-577): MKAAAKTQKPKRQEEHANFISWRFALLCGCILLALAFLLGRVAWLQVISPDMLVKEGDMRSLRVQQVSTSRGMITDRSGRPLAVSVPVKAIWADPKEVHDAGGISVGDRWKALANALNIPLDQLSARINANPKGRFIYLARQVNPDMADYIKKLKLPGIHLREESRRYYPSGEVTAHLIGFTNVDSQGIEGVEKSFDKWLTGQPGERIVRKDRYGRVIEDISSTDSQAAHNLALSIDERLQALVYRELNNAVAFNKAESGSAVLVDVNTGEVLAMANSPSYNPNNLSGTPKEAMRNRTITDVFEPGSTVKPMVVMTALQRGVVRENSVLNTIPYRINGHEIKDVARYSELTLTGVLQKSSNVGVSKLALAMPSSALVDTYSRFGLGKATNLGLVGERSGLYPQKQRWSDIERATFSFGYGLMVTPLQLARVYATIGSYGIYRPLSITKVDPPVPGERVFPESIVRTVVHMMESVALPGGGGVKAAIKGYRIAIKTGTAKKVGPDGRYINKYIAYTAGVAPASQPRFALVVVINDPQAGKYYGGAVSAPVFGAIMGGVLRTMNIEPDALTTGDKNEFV
Method: as §1, §2, §3, §4

E. coli PBP2 = biological target: T2, E. coli PBP2 (Escherichia coli, UniProt P0AD65); test: Bocillin FL competition binding assay, PBP2; set-up: species or system Escherichia coli K12; details: 15 min pre-incubation
T2 construct: 100 μg's of total membrane protein extracts containing PBPs; endogenous in cells; host or cells: Escherichia coli K12, membrane protein fraction
T2 sequence (P0AD65 whole entry): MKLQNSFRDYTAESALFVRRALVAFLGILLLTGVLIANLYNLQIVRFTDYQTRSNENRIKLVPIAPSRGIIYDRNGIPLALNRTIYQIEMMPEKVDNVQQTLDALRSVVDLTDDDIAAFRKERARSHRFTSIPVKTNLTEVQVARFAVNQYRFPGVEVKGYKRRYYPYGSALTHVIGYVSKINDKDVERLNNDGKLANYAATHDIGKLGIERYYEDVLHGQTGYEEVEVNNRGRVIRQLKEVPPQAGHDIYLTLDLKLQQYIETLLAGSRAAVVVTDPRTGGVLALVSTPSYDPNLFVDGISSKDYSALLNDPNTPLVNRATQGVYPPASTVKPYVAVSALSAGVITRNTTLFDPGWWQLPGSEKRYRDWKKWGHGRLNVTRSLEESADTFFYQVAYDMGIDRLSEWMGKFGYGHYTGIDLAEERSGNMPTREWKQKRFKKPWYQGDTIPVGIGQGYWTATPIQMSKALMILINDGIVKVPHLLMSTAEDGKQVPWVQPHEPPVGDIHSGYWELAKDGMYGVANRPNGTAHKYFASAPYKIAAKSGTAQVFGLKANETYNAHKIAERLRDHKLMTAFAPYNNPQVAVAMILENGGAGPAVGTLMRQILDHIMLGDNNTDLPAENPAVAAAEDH
Method: as §1, §2, §3, §4

[1] = tested on: hyper-permeable E. coli 901C; test: Broth microdilution MIC assay, hyper-permeable E. coli; assay type: cell-based; details: Escherichia coli, read-out: E. coli 901C MIC
Summary of the method: (§5)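 Following CLSI procedures, compounds were serially diluted 2-fold and challenged with bacteria at 5×10^5 CFU/mL in Mueller-Hinton broth supplemented with divalent cations. After 16-20 hours at 37° C, the lowest concentration without visible growth was recorded as the MIC.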

S. aureus ATCC 29213 = test: Broth microdilution MIC assay, S. aureus; assay type: cell-based; details: Staphylococcus aureus, ATCC29213; broth microdilution, 16-20 hours at 37° C.; read-out: S. aureus 29213 MIC
Summary of the method: as §5

Row | SMILES | E. coli K12 PBP1a/b Potency (E. coli K12 PBP1a/b) | E. coli PBP3 Potency (E. coli PBP3) | E. coli PBP2 Potency (E. coli PBP2) | MIC [1] [µg/mL] | MIC (S. aureus ATCC 29213) [µg/mL]
1 | Nc1nc(/C(=N/O)C(=O)N[C@H]2Cc3cc(CO)cc(C(=O)O)c3OB2O)cs1 [Example 35, (R,Z)-3-(2-(2-aminothiazol-4-yl)-2-(hydroxyimino)acetamido)-2-hydroxy-6-(hydroxymethyl)-3,4-dihydro-2H-benzo[e][1,2]oxaborinine-8-carboxylic Acid] | C (C represents a potency of <64 μg/mL) | B (B represents a potency between 64 and 1000 μg/mL inclusive) | A (A represents a potency of >1000 μg/mL) | > 128 | 64 to 128
2 | Nc1nc(/C(=N/O)C(=O)N[C@H]2Cc3cc(CCC(=O)O)cc(C(=O)O)c3OB2O)cs1 [Example 37, (R,Z)-3-(2-(2-aminothiazol-4-yl)-2-(hydroxyimino)acetamido)-6-(2-carboxyethyl)-2-hydroxy-3,4-dihydro-2H-benzo[e][1,2]oxaborinine-8-carboxylic Acid] | B (B represents a potency between 64 and 1000 μg/mL inclusive) | B (B represents a potency between 64 and 1000 μg/mL inclusive) | C (C represents a potency of <64 μg/mL) | < 64 | 64 to 128
3 | Nc1nc(/C(=N/O)C(=O)N[C@H]2Cc3cc(F)c(F)c(C(=O)O)c3OB2O)cs1 [Example 41, (R,Z)-3-(2-(2-aminothiazol-4-yl)-2-(hydroxyimino)acetamido)-6,7-difluoro-2-hydroxy-3,4-dihydro-2H-benzo[e][1,2]oxaborinine-8-carboxylic Acid] | B (B represents a potency between 64 and 1000 μg/mL inclusive) | B (B represents a potency between 64 and 1000 μg/mL inclusive) | B (B represents a potency between 64 and 1000 μg/mL inclusive) | < 64 | 64 to 128
4 | COc1cc2c(c(C(=O)O)c1)OB(O)[C@@H](NC(=O)/C(=N\O)c1csc(N)n1)C2 [Example 42, (R,Z)-3-(2-(2-aminothiazol-4-yl)-2-(hydroxyimino)acetamido)-2-hydroxy-6-methoxy-3,4-dihydro-2H-benzo[e][1,2]oxaborinine-8-carboxylic Acid] | C (C represents a potency of <64 μg/mL) | C (C represents a potency of <64 μg/mL) | C (C represents a potency of <64 μg/mL) | < 64 | < 64
5 | Nc1nc(/C(=N/O)C(=O)N[C@H]2Cc3cc(Cl)cc(C(=O)O)c3OB2O)cs1 [Example 44, (R,Z)-3-(2-(2-aminothiazol-4-yl)-2-(hydroxyimino)acetamido)-6-chloro-2-hydroxy-3,4-dihydro-2H-benzo[e][1,2]oxaborinine-8-carboxylic Acid] | B (B represents a potency between 64 and 1000 μg/mL inclusive) | B (B represents a potency between 64 and 1000 μg/mL inclusive) | B (B represents a potency between 64 and 1000 μg/mL inclusive) | < 64 | < 64
6 | N#Cc1ccc(OCCO/N=C(\C(=O)N[C@H]2Cc3cccc(C(=O)O)c3OB2O)c2csc(N)n2)cc1 [Example 46, (R,Z)-3-(2-(2-aminothiazol-4-yl)-2-((2-(4-cyanophenoxy)ethoxy)imino)acetamido)-2-hydroxy-3,4-dihydro-2H-benzo[e][1,2]oxaborinine-8-carboxylic Acid] | C (C represents a potency of <64 μg/mL) | B (B represents a potency between 64 and 1000 μg/mL inclusive) | C (C represents a potency of <64 μg/mL) | < 64 | 64 to 128
7 | Nc1nc(/C(=N/OCCOc2ccccc2)C(=O)N[C@H]2Cc3cccc(C(=O)O)c3OB2O)cs1 [Example 50, (R,Z)-3-(2-(2-aminothiazol-4-yl)-2-((2-phenoxyethoxy)imino)acetamido)-2-hydroxy-3,4-dihydro-2H-benzo[e][1,2]oxaborinine-8-carboxylic Acid] | B (B represents a potency between 64 and 1000 μg/mL inclusive) | B (B represents a potency between 64 and 1000 μg/mL inclusive) | B (B represents a potency between 64 and 1000 μg/mL inclusive) | < 64 | 64 to 128
8 | N=C(N)c1ccc(OCCO/N=C(\C(=O)N[C@H]2Cc3cccc(C(=O)O)c3OB2O)c2csc(N)n2)cc1 [Example 55, (R,Z)-3-(2-(2-aminothiazol-4-yl)-2-((2-(4-carbamimidoylphenoxy)ethoxy)imino)acetamido)-2-hydroxy-3,4-dihydro-2H-benzo[e][1,2]oxaborinine-8-carboxylic Acid] | C (C represents a potency of <64 μg/mL) | C (C represents a potency of <64 μg/mL) | B (B represents a potency between 64 and 1000 μg/mL inclusive) | < 64 | > 128
9 | N#Cc1ccc(NC(=O)CO/N=C(\C(=O)N[C@H]2Cc3cccc(C(=O)O)c3OB2O)c2csc(N)n2)cc1 [Example 56, (R,Z)-3-(2-(2-aminothiazol-4-yl)-2-((2-((4-cyanophenyl)amino)-2-oxoethoxy)imino)acetamido)-2-hydroxy-3,4-dihydro-2H-benzo[e][1,2]oxaborinine-8-carboxylic Acid] | B (B represents a potency between 64 and 1000 μg/mL inclusive) | C (C represents a potency of <64 μg/mL) | C (C represents a potency of <64 μg/mL) | < 64 | 64 to 128
10 | CNC(=O)CO/N=C(\C(=O)N[C@H]1Cc2cccc(C(=O)O)c2OB1O)c1csc(N)n1 [Example 57, (R,Z)-3-(2-(2-aminothiazol-4-yl)-2-((2-(methylamino)-2-oxoethoxy)imino)acetamido)-2-hydroxy-3,4-dihydro-2H-benzo[e][1,2]oxaborinine-8-carboxylic Acid] | C (C represents a potency of <64 μg/mL) | C (C represents a potency of <64 μg/mL) | B (B represents a potency between 64 and 1000 μg/mL inclusive) | < 64 | > 128
11 | Nc1nc(/C(=N/OCC(=O)N2CCNCC2)C(=O)N[C@H]2Cc3cccc(C(=O)O)c3OB2O)cs1 [Example 58, (R,Z)-3-(2-(2-aminothiazol-4-yl)-2-((2-oxo-2-(piperazin-1-yl)ethoxy)imino)acetamido)-2-hydroxy-3,4-dihydro-2H-benzo[e][1,2]oxaborinine-8-carboxylic Acid] | B (B represents a potency between 64 and 1000 μg/mL inclusive) | C (C represents a potency of <64 μg/mL) | C (C represents a potency of <64 μg/mL) | < 64 | > 128
